Where “and” joins values, the source holds several entries; their conditions need not be identical. Equal values may be shown once. Inconclusive results and toxic doses are left out.
System: P388 leukemia ip, CD2F1 mice, survival T/C
Assay: NCI In Vivo Anticancer Drug Screen. Data for tumor model P388 Leukemia (intraperitoneal) in CD2F1 (CDF1) mice
Details: endpoint: median survival time, higher = longer survival
Summary of the method: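 Mice carrying the transplanted tumor received test compound or vehicle. Survival was recorded in each group, and the value is the treated-group measurement divided by that of the vehicle-treated control group.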

[1] = dose: 50.0 mg/kg/injection, schedule: Q01DX009 (ip), vehicle: saline
[2] = dose: 100.0 mg/kg/injection, schedule: Q01DX009 (ip), vehicle: saline
[3] = dose: 60.0 mg/kg/injection, schedule: Q01DX005 (ip), vehicle: Klucel (hydroxypropylcellulose) (HPC)
[4] = dose: 120.0 mg/kg/injection, schedule: Q01DX005 (ip), vehicle: Klucel (hydroxypropylcellulose) (HPC)
[5] = dose: 240.0 mg/kg/injection, schedule: Q01DX005 (ip), vehicle: Klucel (hydroxypropylcellulose) (HPC)
[6] = dose: 50.0 mg/kg/injection, schedule: Q01DX009 (ip), vehicle: saline with Tween-80
[7] = dose: 100.0 mg/kg/injection, schedule: Q01DX009 (ip), vehicle: saline with Tween-80
[8] = dose: 200.0 mg/kg/injection, schedule: Q01DX009 (ip), vehicle: saline with Tween-80
[9] = dose: 200.0 mg/kg/injection, schedule: Q01DX009 (ip), vehicle: saline

COc1ccc(/C(C#N)=C/c2ccncc2)cc1OC
T/C (dose: 12.5 mg/kg/injection, schedule: Q01DX009 (ip), vehicle: saline): 102 % of control
T/C (dose: 25.0 mg/kg/injection, schedule: Q01DX009 (ip), vehicle: saline): 97 % of control
T/C [1]: 101 % of control
T/C [2]: 101 % of control

COc1cc2c3cc1Oc1cc(ccc1O)C[C@@H]1c4c(cc(OC)c(O)c4Oc4ccc(cc4)C[C@@H]3[N+](C)(C)CC2)CC[N+]1(C)C
T/C (dose: 0.06 mg/kg/injection, schedule: Q01DX009 (ip), vehicle: saline with Tween-80): 96 % of control
T/C (dose: 0.13 mg/kg/injection, schedule: Q01DX009 (ip), vehicle: saline with Tween-80): 92 % of control
T/C (dose: 0.25 mg/kg/injection, schedule: Q01DX009 (ip), vehicle: saline with Tween-80): 89 % of control

COC(=O)c1nc(=S)[nH]c(C(=O)OC)c1C(=O)c1ccc([N+](=O)[O-])cc1
T/C [3]: 101 % of control
T/C [4]: 95 % of control
T/C [5]: 91 % of control

O=S(=O)(Oc1ccc2ccccc2c1)C(F)(F)C(F)(F)C(F)(F)C(F)(F)F
T/C [6]: 100 % of control
T/C [7]: 108 % of control
T/C [8]: 108 % of control

CC(C)OC(=S)NC(=O)c1ccccc1
T/C [6]: 109 % of control
T/C [7]: 100 % of control
T/C [8]: 103 % of control
T/C (dose: 400.0 mg/kg/injection, schedule: Q01DX009 (ip), vehicle: saline with Tween-80): 108 % of control

O=[N+]([O-])c1nccn1CCCl
T/C (dose: 12.5 mg/kg/injection, schedule: Q01DX009 (ip), vehicle: distilled water + Tween-80): 95 % of control
T/C (dose: 25.0 mg/kg/injection, schedule: Q01DX009 (ip), vehicle: distilled water + Tween-80): 113 % of control
T/C (dose: 50.0 mg/kg/injection, schedule: Q01DX009 (ip), vehicle: distilled water + Tween-80): 100 % of control

C[N+](C)(C)CC1CS1 (centres undefined)
T/C (dose: 4.5 mg/kg/injection, schedule: Q01DX009 (ip), vehicle: saline): 104 % of control
T/C (dose: 9.0 mg/kg/injection, schedule: Q01DX009 (ip), vehicle: saline): 95 % of control
T/C (dose: 18.0 mg/kg/injection, schedule: Q01DX009 (ip), vehicle: saline): 100 % of control

NC(=S)N/N=C/c1ccc2c(c1)OCO2
T/C [6]: 100 % of control
T/C [7]: 100 % of control

Nc1nc2ncnc(N)c2nc1-c1ccc(N(CCO)CCO)cc1
T/C [3]: 91 % of control
T/C [4]: 90 % of control
T/C [5]: 91 % of control

CN1CCN(CCSSCCN2CCN(C)CC2)CC1
T/C [1]: 109 % of control
T/C [2]: 104 % of control
T/C [9]: 109 % of control

CCC(C)/C(=C\C#N)NCCN/C(=C/C#N)C(C)CC (centres undefined)
T/C [3]: 94 % of control
T/C [4]: 91 % of control
T/C [5]: 89 % of control

CN(C)c1ccc(/C=C(\C#N)C(N)=S)cc1
T/C [1]: 100 % of control
T/C [2]: 100 % of control
T/C [9]: 106 % of control

CCC/C=C/C=C/C(=O)OC1/C(=C/C(=O)OC)CC2CC(C(C)O)OC(=O)CC(O)CC3CC(OC(C)=O)C(C)(C)C(O)(CC4C/C(=C/C(=O)OC)CC(/C=C/C(C)(C)C1(O)O2)O4)O3 (centres undefined)
T/C (dose: 0.01 mg/kg/injection, schedule: Q01DX009 (ip), vehicle: saline + alcohol): 152 % of control
T/C (dose: 0.03 mg/kg/injection, schedule: Q01DX009 (ip), vehicle: saline + alcohol): 186 % of control
T/C (dose: 0.07 mg/kg/injection, schedule: Q01DX009 (ip), vehicle: saline + alcohol): 163 % of control and 196 % of control
T/C (dose: 0.15 mg/kg/injection, schedule: Q01DX009 (ip), vehicle: saline + alcohol): 179 % of control
T/C (dose: 18.75 micrograms/kg/injection, schedule: Q01DX009 (ip), vehicle: saline + alcohol): 175 % of control
T/C (dose: 37.5 micrograms/kg/injection, schedule: Q01DX009 (ip), vehicle: saline + alcohol): 177 % of control
T/C (dose: 75.0 micrograms/kg/injection, schedule: Q01DX009 (ip), vehicle: saline + alcohol): 177 % of control

Source: PubChem BioAssay AID330 (DTP/NCI, 2004)
